According to patent US11324742B2, “Treatment of demyelinating diseases” (Victoria Link Ltd., priority 2018, dated 2022):
Read-outs that look alike come from different tables or passages of the source.

Columns and labels:
[1] = tested on: leucocyte infiltration into the spinal cord of EAE mice; assay: EAE model, H&E staining of spinal cord (leucocyte infiltration); type: in vivo, female C57BL/6 mice; details: 0.01 mg/kg daily i.p. from onset; chronic phase
[2] = cited from earlier work
[3] = tested on: cuprizone demyelination disease model of MS; assay: Cuprizone model of demyelination, weight change; type: in vivo, female C57BL/6 mice
[4] = tested on: cuprizone demyelination disease model of MS; assay: Cuprizone model, von Frey mechanical withdrawal threshold; type: in vivo, female C57BL/6 mice; details: 0.1 mg/kg/i.p. daily
Morphine induced scratch = details: SC, EMA/CHMP/138212/2014; cited from earlier work
[5] = tested on: Substance P induced scratch; assay: Substance P induced scratch mouse model; details: SC or IV administration, top two rows of the table only, read-out: average in vivo efficacy ED50 for itch model
[6] = tested on: infiltrating immune cells (CD45high) in brain of EAE mice; assay: EAE model, immune cell infiltration into the brain by flow cytometry; type: in vivo, female C57BL/6 mice
[7] = tested on: activated GFAP+ astrocytes in the spinal cord of EAE mice; assay: EAE model, GFAP immunohistochemistry of spinal cord (activated astrocytes); type: in vivo, female C57BL/6 mice; details: 0.01 mg/kg daily i.p. from day 17; day 45
[8] = tested on: Histamine induced scratch; details: PO, Togashi et al. (2002); cited from earlier work
[9] = tested on: myelin in spinal cord of EAE mice; assay: EAE model, TEM of spinal cord sections; type: in vivo, female C57BL/6 mice; details: 0.03 mg/kg daily i.p. from day 17; day 45
[10] = tested on: Substance P induced scratch; details: cited from earlier work
[11] = tested on: myelin in spinal cord of EAE mice; assay: EAE model, luxol fast blue staining of spinal cord (demyelination); type: in vivo, female C57BL/6 mice
[12] = tested on: lymphocyte populations in the spleen of EAE mice; assay: EAE model, splenocytes by flow cytometry; type: in vivo, female C57BL/6 mice; details: 0.01 mg/kg daily i.p. from onset
[13] = tested on: cuprizone model of demyelination; assay: Cuprizone model, rotarod assay (coordination); type: in vivo, female C57BL/6 mice; details: 0.1 mg/kg daily i.p.; week 9 relative to week 5
itch = details: human; cited from earlier work
[14] = tested on: myelin in corpus callosum of cuprizone-treated mice; assay: Cuprizone model, TEM of corpus callosum (g-ratio, myelinated axons, myelin area); type: in vivo, female C57BL/6 mice
[15] = 0.1 mg/kg/i.p. daily from day 28, day 70

CN(C(=O)/C=C/c1ccoc1)[C@@H]1CC[C@@]2(O)[C@H]3Cc4ccc(O)c5c4[C@@]2(CCN3CC2CC2)[C@H]1O5 [nalfurafine, (E)-N-[(4R,4aS,7R,7aR,12bS)-3-(cyclopropylmethyl)-4a,9-dihydroxy-1,2,4,5,6,7,7a,13-octahydro-4,12-methanobenzofuro[3,2-e]isoquinoline-7-yl]-3-(furan-3-yl)-N-methylprop-2-enamide]
leucocyte infiltration score (0-3), H&E [1]: reduction of infiltrating leucocytes
Bioavailability ([2]; intravenous (IV)): 100%
Bioavailability ([2]; oral (PO) administration): ~32%
Bioavailability ([2]; subcutaneous (s.c.)): 96%
% weight change in recovery phase ([3]; 0.1 mg/kg daily i.p. from day 28, cuprizone 35 days, vs vehicle or U-50488): enhances recovery of the lost weight faster
% weight change (reversal of cuprizone weight loss) ([3]; 0.1 mg/kg daily i.p. from week 4, 0.3% cuprizone 5 weeks, vs vehicle (Example 7)): reversed significantly more effectively
mechanical withdrawal threshold (von Frey) ([4]; pre vs post treatment): reduced to baseline levels
mechanical threshold scores (von Frey) ([4]; vs vehicle treated mice): improved mechanical threshold scores
Complete Inhibition (Morphine induced scratch): 5 to 10 µg/kg
ED50 (Morphine induced scratch): 2.34 µg/kg
ED50 [5]: ~2.71 µg/kg
number of infiltrating immune cells in brain (ratio to microglia) ([6]; 0.03 mg/kg daily i.p. from day 17, day 45): significantly reduced
number of infiltrating immune cells in brain (ratio to microglia) ([6]; 0.03 and 0.01 mg/kg daily i.p. from onset, chronic phase (>24 days)): significantly reduced
number of activated GFAP+ astrocytes per section [7]: significantly reduces
Complete Inhibition [8]: 30 to 100 µg/kg
ED50 [8]: 7.3 µg/kg
myelination of nerve axons in spinal cord (TEM) [9]: healthy and well-myelinated
Complete Inhibition ([10]; IV, EMA/CHMP/138212/2014): 7.5 to 10 µg/kg
ED50 ([10]; IV, EMA/CHMP/138212/2014): 3.77 µg/kg
Inhibition reached at the dose given under Complete Inhibition ([10]; PO, 100 μg/kg, EMA/CHMP/138212/2014): (66%)
Complete Inhibition ([10]; PO, EMA/CHMP/138212/2014): 100 µg/kg
ED50 ([10]; PO, EMA/CHMP/138212/2014): 9.61 µg/kg
Complete Inhibition ([10]; PO, Togashi et al. (2002)): 100 µg/kg
ED50 ([10]; PO, Togashi et al. (2002)): 19.6 µg/kg
Complete Inhibition ([10]; SC, EMA/CHMP/138212/2014): 10 µg/kg
ED50 ([10]; SC, EMA/CHMP/138212/2014): 1.65 µg/kg
lesion load and myelin density in ventral horn (luxol fast blue) ([11]; 0.01 mg/kg daily i.p. from onset, chronic phase (Example 25)): reduces this lesion load and demyelination
% demyelination of spinal cord (luxol fast blue) ([11]; 0.03 or 0.01 mg/kg daily i.p. from onset, chronic phase): significant reduction
proportion of major lymphocyte populations in spleen (CD4, CD8, B220; % live leukocytes) ([12]; 27 days post treatment initiation): do not alter
Teff:cm ratio (effector to central memory CD4 T cells) ([12]; 27 days, vs vehicle): reduced ratio
overall number of CD4 T cells in spleen ([12]; 27 days, vs vehicle): the same
rotarod performance (coordination) [13]: reversed
effective dose in humans for itch (itch): 2.5 μg/body/day
myelin in corpus callosum (TEM, g-ratio) ([14]; 0.1 mg/kg daily i.p. from week 4, day 65 (Example 9)): more myelin was detected
area of myelin staining per TEM image [14, 15]: percentage increase in area of myelination
mean g-ratio (corpus callosum) [14, 15]: 0.75±0.15
number of myelinated axons vs non-myelinated axons [14, 15]: percentage increase in the number of myelinated axons
